In patent publication US20240156800A1, “EP300 DEGRADER AND USES THEREOF IN NEUROBLASTOMA” (DANA-FARBER CANCER INSTITUTE, INC., priority 2021, published 2024):

Legend:
[1] = system: pro- and anti-apoptotic mRNA transcripts; assay: ERCC spike-in RNA-seq of treated Kelly cells; type: cell-based, human; conditions: 500 nM, 24 h
Procedure: For in vitro analyses, total RNA was extracted from control […] or JQAD1 treated Kelly cells using TRIzolTM reagent (Ambion). Prior to extraction, exogenous spike-in of synthetic External RNA Control Consortium (ERCC) RNA controls were added based on cell number (Ambion). Samples were treated with RNAse-free DNAse I and spin purified using the Qiagen® RNeasy Kit (Qiagen®). Purified RNA samples were subjected to library construction with poly-adenylation preparation and sequencing using the Illumina NextSeq® 500 (paired end, 75bp reads). RNA-seq reads were aligned to a reference index containing the sequences of the hg19 revision of the human reference genome and the ERCC spike-in probes using hisat 2.1.0. Expression was quantified using sorted BAMs, a gene reference built using ERCC sizes and RefSeq genes downloaded Jul. 15, 2017, and htseq-count with parameters -I gene_id- stranded=reverse -f bam -m intersection-strict. Read counts were converted to transcripts per million (TPM) and used for cell number-normalization. The expression of all RefSeq genes and ERCC probes was floored at 0.01 and a pseudocount of 0.1 was added to all entries. Values were normalized by equilibrating the expression of the ERCC probes among experiments using normalize.loess from the affy R package. The ERCC-normalized expression of each gene after 24 h of either […] or JQAD1 treatment was compared against its expression in dimethyl sulfoxide (DMSO) treated samples to create two-fold changes.

[2] = system: Kelly, NGP and BE2C NB cells; assay: Propidium iodide DNA flow cytometry (cell cycle, sub-G1); type: cell-based, human; conditions: Kelly and NGP cells
Procedure: Cells were infected with lentiviruses encoding single guide RNAs (sgRNAs) or treated with compounds as described for the noted length of time. Cells were then liberated from adhesion to the plate using a sterile spatula (Coming®) followed by centrifugation, aspiration of media, and resuspension in hypotonic citrate-propidium iodide (PI) solution for 30 minutes at 37° C. (Tate et al. Cytometry 4:211-215 (1983)). Nuclei were stabilized using 5M NaCl prior to analysis on a FACSAria™ II (BD Biosciences). Analysis of cell cycle phases was performed using FlowJo® v10.7 (BD Biosciences).

[3] = system: Kelly-Cas9 control or CRBN knockout cells; assay: CellTiter-Glo assay of Kelly-Cas9 control or CRBN knockout cells; type: cell-based, human; conditions: range of doses, seven days
Procedure: Cells were infected with lentiviruses encoding sgRNAs or treated with compounds as described. Colony assays were performed by replating cells at 500 cells per well in 6-well dishes and grown in regular growth media for 10 d before 100% methanol fixation, 0.05% crystal violet staining, and quantitation. Experiments were completed in triplicate; data shown are the average of three independent experiments. Cell Titer-Glo® assay was performed as per the manufacturer's instructions (Promega®). Briefly, 1000 cells/well were plated into 96-well plates and treated with a range of compound dosing. Cell viability was measured at the noted time points based on luminescence by the Cell Titer-Glo® assay (Promega®) and read on an Envision 2104 (PerkinElmer®, USA) according to the manufacturer's protocol.
sgRNAs targeting individual genes were subcloned by standard methodologies within pLKO.5-EFGP. Kelly, SIMA, BE2C, and NGP cells were infected with lenticas9 followed by blasticidin selection. Stable expression of cas9 was established by western blotting of protein lysates using cas9 antibody (Cell Signaling Technology®). Following infection of pLKO.5-EGFP-sgRNA lentivirus, cells were cultured for the identified times prior to evaluation. BE2C cells were infected with pLC-zsgreen or pLC-CRBN lentiviruses and selected using 500 μg/mL hygromycin (Invitrogen™)

[4] = system: cleaved caspase-3 and cleaved PARP1; assay: Western blotting of apoptosis markers; type: cell-based, human; conditions: Kelly (1 μM) and NGP (2.5 μM) cells, 12-36 h
Procedure: (§1) Cells growing in culture were lysed for whole cell lysates as described in Durbin et al. Nat. Genet. 50:1240-1246 (2018) and Wang et al. Nat. Commun. 10:5622 (2019). Nuclear lysates were prepared using the NE-PER® nuclear lysate kit (Thermo Scientific™) according to the manufacturer's protocol. Chromatin lysates were prepared with the total histone extraction kit (Epigentek). Briefly, equivalent amounts of protein were resolved by western blotting using 4-12% Bis-Tris NuPAGE™ gels (Thermo-Fisher Scientific) prior to transfer, and immunoblotting using primary antibodies to: MYCN (1:1000, Cell Signaling Technology®), H3K27ac (1:1000, Abcam), total H3 (1:1000, Cell Signaling Technology®), EP300 (1:1000, Abcam), CBP (1:500, Cell Signaling Technology®), Cas9 (1:1000, Cell Signaling Technology®), cleaved-PARP1 (1:1000, Cell Signaling Technology), cleaved Caspase-3 (1:1000, Cell Signaling Technology®), β-actin (1:1000, Cell Signaling Technology®), GATA3 (1:1000, EMD Millipore™), TFAP2β (1:1000, Cell Signaling Technology®), Vinculin (1:1000, EMD Millipore™), CRBN (1:1000, Cell Signaling Technology®), HAND2 (1:1000, Santa Cruz Biotechnology). Secondary antibodies were horseradish peroxidase (HRP)-conjugated anti-rabbit or anti-mouse (1:5000, Santa Cruz Biotechnology), incubated prior to exposure to enhanced chemiluminescence reagents (GE, Amersham). For immunoprecipitation, equal amounts of protein were diluted in buffer C as described in Mansour et al. Science 346:1373-1377 (2014) and incubated with antibodies covalently conjugated to Dynabeads™ M-270 beads (Thermo-Fisher Scientific) overnight according to the manufacturer's directions. Antibodies used included: H3K27ac, EP300 (Abcam), CBP, TFAP2β (Cell Signaling Technology®), rabbit immunoglobulin G (IgG) (Santa Cruz Biotechnology®). Immunoprecipitated protein was isolated as per the manufacturer's directions and subjected to western blotting, as described above, or mass spectrometry.

[5] = molecular target: T1, CBP (Homo sapiens, UniProt Q92793); assay: Western blotting of CBP in treated NB cells; type: cell-based
T1 construct: Cells growing in culture were lysed for whole cell lysates; endogenous in cells; host or cells: Kelly, NGP, SIMA, BE2C neuroblastoma cells; Kelly xenografts in NSG mice
T1 sequence (Q92793 whole entry): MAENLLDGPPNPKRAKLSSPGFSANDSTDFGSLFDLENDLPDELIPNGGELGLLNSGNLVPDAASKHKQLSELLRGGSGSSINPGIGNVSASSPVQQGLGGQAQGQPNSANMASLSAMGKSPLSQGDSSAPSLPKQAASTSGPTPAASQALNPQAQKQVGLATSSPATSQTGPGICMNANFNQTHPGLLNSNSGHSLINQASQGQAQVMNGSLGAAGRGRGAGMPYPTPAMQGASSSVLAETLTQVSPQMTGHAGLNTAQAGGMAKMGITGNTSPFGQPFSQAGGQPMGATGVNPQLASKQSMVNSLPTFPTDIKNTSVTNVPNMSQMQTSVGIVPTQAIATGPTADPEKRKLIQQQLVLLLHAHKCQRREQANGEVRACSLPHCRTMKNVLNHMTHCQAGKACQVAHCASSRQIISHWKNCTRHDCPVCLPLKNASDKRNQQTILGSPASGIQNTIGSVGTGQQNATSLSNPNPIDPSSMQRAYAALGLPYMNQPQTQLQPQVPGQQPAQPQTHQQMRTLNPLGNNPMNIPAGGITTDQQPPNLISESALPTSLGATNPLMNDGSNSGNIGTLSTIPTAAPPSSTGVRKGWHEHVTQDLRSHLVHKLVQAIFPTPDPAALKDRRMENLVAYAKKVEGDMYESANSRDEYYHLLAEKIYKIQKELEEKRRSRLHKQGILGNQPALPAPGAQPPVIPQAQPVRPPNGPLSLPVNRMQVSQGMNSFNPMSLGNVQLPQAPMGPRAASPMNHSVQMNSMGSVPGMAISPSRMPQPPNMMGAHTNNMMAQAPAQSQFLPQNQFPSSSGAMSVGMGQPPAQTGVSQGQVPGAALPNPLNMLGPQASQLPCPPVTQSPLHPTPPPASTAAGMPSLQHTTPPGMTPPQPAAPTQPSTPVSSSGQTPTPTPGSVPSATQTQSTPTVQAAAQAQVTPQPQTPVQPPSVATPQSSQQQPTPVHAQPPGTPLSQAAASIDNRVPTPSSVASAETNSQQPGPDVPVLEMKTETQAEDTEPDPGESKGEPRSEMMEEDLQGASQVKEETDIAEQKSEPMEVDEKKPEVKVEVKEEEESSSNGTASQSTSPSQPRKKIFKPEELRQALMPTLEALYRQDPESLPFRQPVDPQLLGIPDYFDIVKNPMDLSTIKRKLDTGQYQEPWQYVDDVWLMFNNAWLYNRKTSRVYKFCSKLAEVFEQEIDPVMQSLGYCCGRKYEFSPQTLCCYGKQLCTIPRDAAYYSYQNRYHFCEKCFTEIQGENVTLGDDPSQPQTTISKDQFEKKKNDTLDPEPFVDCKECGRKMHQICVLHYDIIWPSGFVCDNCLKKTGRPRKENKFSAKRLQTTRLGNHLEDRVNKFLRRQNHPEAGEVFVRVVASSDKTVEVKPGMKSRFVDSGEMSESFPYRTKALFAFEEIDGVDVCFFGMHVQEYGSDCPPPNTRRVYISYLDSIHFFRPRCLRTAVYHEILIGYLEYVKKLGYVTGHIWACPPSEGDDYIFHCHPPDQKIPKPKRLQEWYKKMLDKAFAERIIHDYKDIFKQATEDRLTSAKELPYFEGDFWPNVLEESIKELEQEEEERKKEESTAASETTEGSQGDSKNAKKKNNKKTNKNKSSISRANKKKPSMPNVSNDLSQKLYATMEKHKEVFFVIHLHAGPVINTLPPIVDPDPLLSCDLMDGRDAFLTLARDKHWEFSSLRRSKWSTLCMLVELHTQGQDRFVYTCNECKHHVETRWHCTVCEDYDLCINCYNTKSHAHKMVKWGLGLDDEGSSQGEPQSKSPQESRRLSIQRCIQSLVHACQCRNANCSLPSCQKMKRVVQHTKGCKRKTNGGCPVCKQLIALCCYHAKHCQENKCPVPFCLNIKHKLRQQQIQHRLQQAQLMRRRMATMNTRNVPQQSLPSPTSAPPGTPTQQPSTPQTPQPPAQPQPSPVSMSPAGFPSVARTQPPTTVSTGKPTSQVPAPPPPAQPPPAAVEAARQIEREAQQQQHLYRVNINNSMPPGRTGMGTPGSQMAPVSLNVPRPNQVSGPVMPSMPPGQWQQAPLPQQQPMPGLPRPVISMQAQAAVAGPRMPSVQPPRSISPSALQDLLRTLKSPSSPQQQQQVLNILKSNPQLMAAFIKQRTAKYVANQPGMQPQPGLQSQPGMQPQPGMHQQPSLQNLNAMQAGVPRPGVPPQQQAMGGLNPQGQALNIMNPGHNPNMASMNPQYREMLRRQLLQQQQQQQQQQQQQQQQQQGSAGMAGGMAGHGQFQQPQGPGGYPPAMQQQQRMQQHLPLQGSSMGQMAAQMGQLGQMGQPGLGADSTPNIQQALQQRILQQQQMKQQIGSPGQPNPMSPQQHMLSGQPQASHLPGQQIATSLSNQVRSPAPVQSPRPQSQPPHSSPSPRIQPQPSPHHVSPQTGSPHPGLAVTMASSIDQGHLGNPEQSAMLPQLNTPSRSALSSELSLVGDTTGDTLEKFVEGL
Procedure: as §1

Q: How did the “transcript levels of BIM, BID, PUMA, BAX, BCL2 and MCL1” value [1] turn out when `C[C@H](N(Cc1ccc(F)cc1)C(=O)CN1C(=O)O[C@@]2(CCc3cc(NC(=O)CCCCCCCCCCCNc4ccc5c(c4)C(=O)N(C4CCC(=O)NC4=O)C5=O)ccc32)C1=O)C(F)(F)F` (stereo partly drawn) [JQAD1, 12-((2-(2,6-dioxopiperidin-3-yl)-1,3-dioxoisoindolin-5-yl)amino)-N-((R)-3′-(2-((4-fluorobenzyl)((S)-1,1,1-trifluoropropan-2-yl)amino)-2-oxoethyl)-2′,4′-dioxo-2,3-dihydrospiro[indene-1,5′-oxazolidin]-5-yl)dodecanamide] was run?
A: Its value is “upregulation”.

Q: And the “gene set enrichment analysis, hallmark gene sets” value ([1]; JQAD1 versus A485)?
A: The value was “enrichment of the apoptosis hallmark gene set”.

Q: And the “cell cycle / subG1 effect” value [2]?
A: The value was “induction of a subG1 peak”.

Q: What about the “growth of CRBN-knockout Kelly cells” value [3] of the same compound?
A: Its value is “resistant”.

Q: What about the “growth of control-edited Kelly cells” value [3] of the same compound?
A: The value was “potently killed”.

Q: And the “apoptosis: cleavage of caspase-3 and PARP1” value [4]?
A: The value was “induction of cellular apoptosis marked by cleavage of caspase-3 and PARP1”.

Q: And the CBP expression levels ([5]; Kelly cells, 24 h)?
A: The CBP expression levels was “neither compound had significant effects on expression levels of CBP”.

Q: What about the “CBP detection at 24 h” value ([5]; Kelly, NGP and SIMA cells, 24 h) of the same compound?
A: The value was “could still be detected”.

Q: And the “CBP expression with extended treatment” value ([5]; Kelly, NGP and SIMA cells, extended treatment)?
A: The value was “loss of CBP expression was observed”.
